The values below come from PMC12055641, “The Study of Antistaphylococcal Potential of Omiganan and Retro-Omiganan Under Flow Conditions” (Probiotics and Antimicrobial Proteins, 2024).

The subject of data set [1] is S. aureus ATCC 33591 (MRSA). The experiment in a line: microbe, parasite or virus in culture. The gist of the method:
(§1)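 MICs by CLSI broth microdilution in Mueller–Hinton broth (Ca²⁺ 50 mg/L added for daptomycin), read as lowest concentration inhibiting visible growth. MBEC on 24 h biofilms (0.5 × 10^7 CFU/mL, 37 °C) and MBIC with compound present during 24 h growth, both read by resazurin; triplicates.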

In data set [2] the test system is S. aureus ATCC 25923. The experiment in a line: microbe, parasite or virus in culture. The method in brief:
as §1

Data set [3] relates to mupirocin-resistant MRSA strains. Details: method as in PMID 28581672. Conditions: all mupirocin-resistant MRSA strains analyzed; cited from earlier work.
For data set [4] the following is noted: incubation with human skin S9 protease; cited from earlier work.
Where [5] appears, read: S. aureus ATCC 33591 (MRSA) biofilm treated under flow with Omiganan (half MBEC) for 24 h.
[6] abbreviates: S. aureus ATCC 33591 (MRSA) biofilm treated under flow with Omiganan (half MBEC) for 48 h.
Where [7] appears, read: S. aureus ATCC 33591 (MRSA) biofilm treated under flow with Omiganan (half MBEC) for 72 h.
Setting [8] is: S. aureus ATCC 33591 (MRSA) biofilm treated under flow with Retro-Omiganan (half MBEC) for 24 h.
Where [9] appears, read: S. aureus ATCC 33591 (MRSA) biofilm treated under flow with Retro-Omiganan (half MBEC) for 48 h.
[10] abbreviates: S. aureus ATCC 33591 (MRSA) biofilm treated under flow with Retro-Omiganan (half MBEC) for 72 h.
[11] abbreviates: S. aureus ATCC 33591 (MRSA), time 0 h (baseline, before peptide exposure).

Values joined by “and” are separate entries in the source; they are usually repeats but may differ in a detail not shown here. Equal values may be shown once. No end group written: not given here.

Turning to KRRWPWWPWRLI-NH2 [Retro-Omiganan], the MIC in data set [1] (setting [5]), in data set [1] (setting [6]), in data set [1] (setting [7]), in data set [1] (setting [8]), in data set [1] (setting [9]) and in data set [1] (setting [10]) was 8.0 µg/mL in each case. Further, the MIC in data set [1] (setting [11]) is given as 16.0 µg/mL; in data set [2] (S. aureus 25923, time 0 h (baseline, before peptide exposure)), 8.0 µg/mL; in data set [2] (S. aureus 25923 biofilm treated under flow with Omiganan (half MBEC) for 24 h) it was 8.0 µg/mL; in data set [2] (S. aureus 25923 biofilm treated under flow with Omiganan (half MBEC) for 48 h), 8.0 µg/mL; in data set [2] (S. aureus 25923 biofilm treated under flow with Omiganan (half MBEC) for 72 h) it was 8.0 µg/mL; in data set [2] (S. aureus 25923 biofilm treated under flow with Retro-Omiganan (half MBEC) for 24 h) it was 8.0 µg/mL. For the same substance, the MIC in data set [2] (S. aureus 25923 biofilm treated under flow with Retro-Omiganan (half MBEC) for 48 h) and in data set [2] (S. aureus 25923 biofilm treated under flow with Retro-Omiganan (half MBEC) for 72 h) was 8.0 µg/mL in each case.

In the case of ILRWPWWPWRRK-NH2 [Omiganan], the MIC in data set [3] was 12.5 µM and 22.7 µg/mL; in data set [1] (setting [5]) it was 8.0 µg/mL; in data set [1] (setting [6]), 8.0 µg/mL; in data set [1] (setting [7]), 8.0 µg/mL; in data set [1] (setting [8]) it was 8.0 µg/mL; in data set [1] (setting [9]), 8.0 µg/mL. For the same substance, the MIC was 8.0 µg/mL in data set [1] (setting [10]); 16.0 µg/mL in data set [1] (setting [11]); 16.0 µg/mL in data set [2] (ATCC 25923, 0 h); 8.0 µg/mL in data set [2] (ATCC 25923, 24 h); 8.0 µg/mL in data set [2] (ATCC 25923, 48 h); 8.0 µg/mL in data set [2] (ATCC 25923, 72 h). Besides, in data set [4], the half-life result is on record as “ca. 10 min”.
